Laboratory results reported in patent publication US10004740B2, “Prodrugs of HIV reverse transcriptase inhibitors” (Merck Sharp & Dohme Corp., priority 2014, dated 2018).

Tests used:
[1] = molecular target: T1, HIV-1 RT wild-type enzyme (Human immunodeficiency virus type 1 group M subtype B, UniProt P04585); assay: Determination of HIV-1 reverse transcriptase inhibitory activity (RT polymerase assay, electrochemiluminescence); assay type: biochemical
T1 construct: The HIV-1 RT wild-type enzyme (final concentration of 83 pM)
Source text: Determination of HIV-1 Reverse Transcriptase Inhibitory Activity
The heterodimeric nucleic acid substrate used in the HIV-1 RT polymerase reactions was generated by annealing the DNA primer, biotinylated pD500 (Sigma Aldrich, USA, 5′-biotin-ttg aaa tga ctg cgg tac ggc-3′), (SEQ ID NO: 1) to the nucleotide RNA template t500 (derived from hepatitis C virus [HCV] sequence, IBA, Germany, 5′-[…]-3′), (SEQ ID NO: 2). The HIV-1 RT wild-type enzyme (final concentration of 83 pM) was combined with an inhibitor or dimethyl sulfoxide (DMSO, 10% in the final reaction mixture) in assay buffer (62.5 mM Tris-HCl [pH 7.8], 1.25 mM dithiothreitol, 7.5 mM MgCl2, 100 mM KCl, 0.03% CHAPS, and 125 μM EGTA). The mixture was then preincubated on an orbital shaker for 30 min at room temperature in microtiter plates (Costar 3365, Corning, USA). A polymerization reaction was initiated by the addition of RNA template/pD500 DNA primer hybrid (16.6 nM final of RNA/DNA hybrid) and dNTPs (2 μM dATP, dGTP, dCTP and 66.6 nM Ru-dUTP (Meso Scale Discovery, USA)). Plate was sealed and incubated for 5-10 min at room temperature on an orbital shaker. Plate was then incubated for 90 min at 37° C. and reactions quenched with 60 μl quenching buffer (50 mM EDTA, 0.7% BSA, 0.7% Tween-20, 0.017% sodium azide in PBS). The resulting solution was incubated at room temperature for an additional 5 min and then 50 μL was transferred to pre-blocked Avidin plates (L15AA, Meso Scale Discovery). Each well of Avidin plate was blocked for 1 h at room temperature with 100 μL 5% BSA in PBS. Blocking solution was removed by tapping vigorously on filter paper to remove all excess liquid. Reaction on pre-blocked avidin plate proceeded for 60 min at room temperature and then contents removed by tapping vigorously on filter paper to remove all excess liquid. After washing plate 3 times with 150 μL 1×PBS and blotting dry between cycles, 150 μL 1× Read Buffer T (4× Read Buffer T, Meso Scale Discovery) was added and incubated for 5 min at room temperature before counting on a Sector Imager […] (Meso Scale Discovery). Titration curves and IC50 values were calculated using a four parameter logistic fit according to standard procedures. Briefly, % Inhibition=100×((sample raw value)−(mean value of the low control or 0% inhibition))/((mean value of wells representing 100% inhibition)−(mean value of 0% inhibition)). In this assay, low control wells contain DMSO (0% inhibition) and 100% inhibition wells contain 1 μM efavirenz.

[2] = Pharmacokinetic studies in rats, oral gavage, plasma LC-MS/MS; assay type: in vivo; settings: male, Wistar-Hannover; rat, 5 mg/kg PO, 40% PEG400/10% Tween-80/50% water; plasma concentration of Parent after dosing the Parent compound
Experimental: All animal studies were carried out under Good Laboratory Practice regulations for nonclinical laboratory studies. All animal housing and care procedures were in compliance with the Federal Animal Welfare Act and the Institute for Laboratory Animal Resources. All procedures carried out on the animals were reviewed and approved by the Institutional Animal Care and Use Committee. The animal facility was fully accredited with the Association for Assessment and Accreditation of Laboratory Animal Care International.
Two or three male Wistar-Hannover rats weighing 250 to 350 grams with vendor-placed carotid artery catheters were obtained from Charles River (Raleigh, N.C., U.S.A.). Animals were acclimated on a 12-hour light:dark cycle for a minimum of three days in ventilated plastic cages with food and water ad libitum. Blood samples were automatically collected using the Instech Automated Blood sampler (ABS, Plymouth Meeting, Pa.) at designated intervals up to 24 hr and were manually collected post 24 hr.
Animals were fasted overnight before either the Parent compounds of Examples 1-8 (Formula I′) or compounds of Examples 1 to 8 (Formula I) were administered to rats via an oral gavage at the doses and in vehicles specified in Table 3. The animals were allowed access to water ad libitum, while food was returned 4 hours after dosing.
Blood was drawn from catheters placed in the carotid […] at pre-dose, and 0.25, 0.5, 1, 2, 4, 8, 12, 18, 24, 30, and 48 hr after dosing for all compounds and additionally at 72 hr for compounds of example 1, 3, 4, 5, and 7. The plasma was separated by centrifugation (2 minutes at 10000 rpm) and stored at −70° C. until further analysis.
The quantitative analysis of the compounds was performed using a liquid chromatography and tandem mass spectrometry method (LC-MS/MS). The plasma samples were stabilized as needed prior to extraction. Fifty microliter of each unknown together with the standards and quality control samples were extracted using an automated protein precipitation procedure on a Hamilton workstation. The extract was centrifuged and the supernatant was transferred for analysis. The separation was enabled by a Thermo Aria LX-2 LC system on a reversed phase column e g Waters XSelect HSS T3 XP (50×2.1 mm×2.5 u) or Phenomenex Beta Test Column (50×2.1 mm). The compounds were detected using selected reaction monitoring (SRM) methods by an AB Sciex API5000 mass spectrometer in the positive or negative ionization mode. In addition, chromatographic peaks for Parent compounds of Examples 1-8 (Formula I′) and compounds of Examples 1 to 8 (Formula I) were resolved chromatographically with baseline to baseline separation.
Pharmacokinetic parameters were obtained using noncompartmental methods (Watson®). The area under the plasma concentration-time curve (AUC0-t) was calculated from the first time point (0 minutes) up to the last time point with measurable drug concentration (i.e., concentration of Parent (Formula I′ compound) resulting after administration of each of the Parent and Example compounds) using the linear trapezoidal or linear/log-linear trapezoidal rule. The remaining area under the plasma concentration-time curve (AUCt-∞) was estimated by dividing the observed concentration at the last time point by the elimination rate constant. This value was added to AUC0-t to estimate the AUC0-∞. The maximum plasma concentration (Cmax) and the time at which maximum concentration occurred (Tmax) were obtained by inspection of the plasma concentration-time data.
Table 3 provides AUC values obtained in these studies. In Table 3, the Parent of each Example number refers to the Parent counterpart compound of said Example number compound wherein R^4 is replaced with —H.

Compound	IC50 [1]	AUC(0-inf) [2]
CC(F)(F)c1cc(Cn2cnc(C(F)(F)F)c(Oc3cc(Cl)cc(C#N)c3)c2=O)c(=O)[nH]n1 [Parent of Ex. 5, 3-chloro-5-((1-((6-(1,1-difluoroethyl)-3-oxo-2,3-dihydropyridazin-4-yl)methyl)-6-oxo-4-(trifluoromethyl)-1,6-dihydropyrimidin-5-yl)oxy)benzonitrile]	4.6 nM	29.1 µM·h
N#Cc1cc(Cl)cc(Oc2c(C(F)F)ncn(Cc3cc(Cl)n[nH]c3=O)c2=O)c1 [Parent of Ex. 2, 3-chloro-5-((1-((6-chloro-3-oxo-2,3-dihydropyridazin-4-yl)methyl)-4-(difluoromethyl)-6-oxo-1,6-dihydropyrimidin-5-yl)oxy)benzonitrile]	3.3 nM	15.3 µM·h
CC(F)(F)c1cc(Cn2cnc(C(C)(F)F)c(Oc3cc(Cl)cc(C#N)c3)c2=O)c(=O)[nH]n1 [Parent of Ex. 8, 3-chloro-5-((4-(1,1-difluoroethyl)-1-((6-(1,1-difluoroethyl)-3-oxo-2,3-dihydropyridazin-4-yl)methyl)-6-oxo-1,6-dihydropyrimidin-5-yl)oxy)benzonitrile]	4.7 nM	13.9 µM·h
N#Cc1cc(Cl)cc(Oc2c(C(F)(F)F)ncn(Cc3cc(C(F)(F)F)c(=O)[nH]n3)c2=O)c1 [Parent of Ex. 6, 3-chloro-5-((6-oxo-1-((6-oxo-5-(trifluoromethyl)-1,6-dihydropyridazin-3-yl)methyl)-4-(trifluoromethyl)-1,6-dihydropyrimidin-5-yl)oxy)benzonitrile]	7.9 nM	2 µM·h
N#Cc1cc(Cl)cc(Oc2c(C(F)(F)F)ncn(Cc3cc(C(F)F)n[nH]c3=O)c2=O)c1 [Parent of Ex. 4, 3-chloro-5-((1-((6-(difluoromethyl)-3-oxo-2,3-dihydropyridazin-4-yl)methyl)-6-oxo-4-(trifluoromethyl)-1,6-dihydropyrimidin-5-yl)oxy)benzonitrile]	3.2 nM	21 µM·h
N#Cc1cc(Cl)cc(Oc2c(C(F)(F)F)ncn(Cc3cc(-c4ccc(F)cc4)c(=O)[nH]n3)c2=O)c1 [Parent of Ex. 7, 3-chloro-5-((1-((5-(4-fluorophenyl)-6-oxo-1,6-dihydropyridazin-3-yl)methyl)-6-oxo-4-(trifluoromethyl)-1,6-dihydropyrimidin-5-yl)oxy)benzonitrile]	3.7 nM	8.2 µM·h
N#Cc1cc(Cl)cc(Oc2c(C(F)(F)F)ncn(Cc3cc(Cl)n[nH]c3=O)c2=O)c1 [Parent of Ex. 3, 3-chloro-5-((1-((6-chloro-3-oxo-2,3-dihydropyridazin-4-yl)methyl)-6-oxo-4-(trifluoromethyl)-1,6-dihydropyrimidin-5-yl)oxy)benzonitrile]	2.7 nM	10.2 µM·h
